From US8828929B2 (priority 2008, dated 2014)
pEC50: −log10 of the molar value. Where no end group is shown, it is not given here.

How the values were obtained:
[1] = biological target: T1, HLA-A*0201 (Homo sapiens, UniProt P04439, /I218V/L300P/L318F/N151K/N90K/P208A/P217A/Q86G/Q94H/R138H/R169H/T345S); experiment: cell-based; format: binding
T1 construct: endogenous in cells; host or cells: T2 cells (human lymphoid, TAP-deficient)

[2] = tested on: peptide-specific CTLs (IFN-γ-positive cells among CD8-positive cells); design: species or system HLA-A2 transgenic mouse; conditions: mouse, in vivo; for ICS (% in CD8+ cells): iv
[3] = tested on: peptide-specific CTLs (IFN-γ-positive cells among CD8-positive cells); design: species or system HLA-A2 transgenic mouse; conditions: mouse, in vivo
[4] = tested on: target cells pulsed with the peptide; design: species or system HLA-A2 transgenic mouse; conditions: mouse, in vivo
[5] = biological target: T2, HLA-A*0201 (Homo sapiens, UniProt P04439, D140Y/D185E/D98H/E176V/E277Q/G131W/G231S/I119V/I121R/I166T/I218V/L300P/L318F/N151K/N90K/P208A/P217A/Q86G/Q94H/R138H/R169H/T345S); experiment: cell-based; format: binding
T2 construct: endogenous in cells; host or cells: T2 cells (human lymphoid, TAP-deficient)

Compound	Affinity [1]	ICS (% in CD8+ cells) [2]	induction of IFN-γ-positive cells among CD8-positive cells [2]	CTL induction activity [3]	CTL response activity [4]	peptide-specific lysis rates (%) of the target cells by CTLs [4]	pEC50 [5]	ratio (%) of IFN-γ-positive cells among CD8-positive cells [3]
CC[C@H](C)[C@H](NC(=O)[C@H](CCC(=O)O)NC(=O)[C@H](CC(C)C)NC(=O)[C@H](CC(C)C)NC(=O)[C@H](CC(=O)O)NC(=O)[C@H](CCC(=O)O)NC(=O)[C@H](CC(N)=O)NC(=O)[C@H](CC(C)C)NC(=O)[C@@H](N)[C@@H](C)O)C(=O)O [pp1a-445]	High (key: High: less than 100 μM; Medium: 100 to 200 μM; Low: more than 200 μM)	0.08%	–	–	–	–	–	–
CC[C@H](C)[C@H](NC(=O)[C@H](CC(=O)O)NC(=O)[C@H](Cc1ccccc1)NC(=O)[C@@H](NC(=O)CNC(=O)[C@@H](NC(=O)[C@@H](NC(=O)[C@H](CC(C)C)NC(=O)[C@@H](N)Cc1ccccc1)[C@@H](C)CC)[C@@H](C)O)C(C)C)C(=O)O [pp1a-651]	High (key: High: less than 100 μM; Medium: 100 to 200 μM; Low: more than 200 μM)	0.02%	–	–	–	–	–	–
CC[C@H](C)[C@H](NC(=O)[C@H](CO)NC(=O)[C@H](CC(C)C)NC(=O)[C@H](CC(C)C)NC(=O)[C@H](CC(C)C)NC(=O)[C@H](CC(C)C)NC(=O)[C@H](Cc1c[nH]c2ccccc12)NC(=O)[C@H](CCSC)NC(=O)[C@H](C)N)C(=O)O [pp1a-2207]	–	*0.48%	significantly induced IFN-γ-positive cells among CD8-positive cells	higher than that of the CTL epitope peptide of the Spike protein	–	–	–	–
CC(C)C[C@H](NC(=O)[C@H](C)NC(=O)[C@H](C)NC(=O)[C@H](CC(C)C)NC(=O)[C@@H](NC(=O)[C@H](CS)NC(=O)[C@H](CC(C)C)NC(=O)[C@H](CC(C)C)NC(=O)[C@@H](N)[C@@H](C)O)C(C)C)C(=O)O [pp1a-2754, TLLCVLAAL]	High (key: High: less than 100 μM; Medium: 100 to 200 μM; Low: more than 200 μM)	0.04%	–	–	–	–	–	–
CC(C)C[C@H](NC(=O)[C@H](Cc1c[nH]c2ccccc12)NC(=O)[C@H](C)NC(=O)[C@H](CC(C)C)NC(=O)[C@@H](N)C(C)C)C(=O)N[C@@H](Cc1ccc(O)cc1)C(=O)N[C@@H](C)C(=O)N[C@@H](C)C(=O)N[C@H](C(=O)O)C(C)C [pp1a-3444]	High (key: High: less than 100 μM; Medium: 100 to 200 μM; Low: more than 200 μM)	*0.12%	significantly induced IFN-γ-positive cells among CD8-positive cells	–	–	–	–	–
CC(C)C[C@H](NC(=O)[C@@H](NC(=O)[C@@H](NC(=O)[C@@H](NC(=O)[C@H](Cc1ccccc1)NC(=O)[C@H](CCCNC(=N)N)NC(=O)[C@H](CC(N)=O)NC(=O)[C@H](CC(C)C)NC(=O)[C@@H](N)Cc1ccccc1)[C@@H](C)O)[C@@H](C)O)[C@@H](C)O)C(=O)O [pp1a-3459]	High (key: High: less than 100 μM; Medium: 100 to 200 μM; Low: more than 200 μM)	0.03%	–	–	–	–	–	–
CC[C@H](C)[C@H](NC(=O)[C@H](CC(C)C)NC(=O)[C@H](CC(C)C)NC(=O)[C@H](CO)NC(=O)[C@@H](NC(=O)[C@H](CC(C)C)NC(=O)[C@@H](N)Cc1ccccc1)[C@@H](C)O)C(=O)N[C@@H](CC(C)C)C(=O)N[C@H](C(=O)O)C(C)C [pp1a-3564]	Medium (key: High: less than 100 μM; Medium: 100 to 200 μM; Low: more than 200 μM)	0.06%	–	–	–	–	–	–
CC(C)C[C@H](NC(=O)[C@H](CO)NC(=O)[C@@H]1CCCN1C(=O)[C@H](CC(C)C)NC(=O)[C@H](CC(C)C)NC(=O)[C@@H](N)Cc1ccccc1)C(=O)N[C@@H](C)C(=O)N[C@H](C(=O)N[C@H](C(=O)O)C(C)C)[C@@H](C)O [pp1a-3616]	High (key: High: less than 100 μM; Medium: 100 to 200 μM; Low: more than 200 μM)	0.07%	–	–	–	–	–	–
CC[C@H](C)[C@H](NC(=O)[C@@H](NC(=O)[C@H](CC(N)=O)NC(=O)[C@H](CCSC)NC(=O)[C@H](CC(C)C)NC(=O)[C@@H](N)[C@@H](C)O)C(C)C)C(=O)N[C@H](C(=O)N[C@@H](CC(C)C)C(=O)N[C@H](C(=O)O)C(C)C)[C@@H](C)O [pp1a-3687]	High (key: High: less than 100 μM; Medium: 100 to 200 μM; Low: more than 200 μM)	*0.20%	significantly induced IFN-γ-positive cells among CD8-positive cells	higher than that of the CTL epitope peptide of the Spike protein	–	–	–	–
CC[C@H](C)[C@H](NC(=O)[C@@H](NC(=O)[C@H](CC(C)C)NC(=O)[C@H](C)NC(=O)[C@H](Cc1c[nH]c2ccccc12)NC(=O)[C@H](CCSC)NC(=O)[C@@H](N)CO)C(C)C)C(=O)N[C@@H](CO)C(=O)N[C@H](C(=O)O)C(C)C [pp1a-3709]	High (key: High: less than 100 μM; Medium: 100 to 200 μM; Low: more than 200 μM)	*0.50%	significantly induced IFN-γ-positive cells among CD8-positive cells	higher than that of the CTL epitope peptide of the Spike protein	especially high CTL response activity	96.3%	–	–
ALSGVFCGV [pp1a-2990]	High (key: High: less than 100 μM; Medium: 100 to 200 μM; Low: more than 200 μM)	*0.16%	significantly induced IFN-γ-positive cells among CD8-positive cells	higher than that of the CTL epitope peptide of the Spike protein	high CTL response activities	73.4%	5.21	–
CLDAGINYV [pp1a-2187]	High (key: High: less than 100 μM; Medium: 100 to 200 μM; Low: more than 200 μM)	*0.19%	significantly induced IFN-γ-positive cells among CD8-positive cells	higher than that of the CTL epitope peptide of the Spike protein	high CTL response activities	79.2%	5.52	–
FIAGLIAIV [spike-1203, reference compound]	–	–	–	–	–	–	–	0.29%
ILLLDQVLV [pp1a-2546]	High (key: High: less than 100 μM; Medium: 100 to 200 μM; Low: more than 200 μM)	*0.17%	significantly induced IFN-γ-positive cells among CD8-positive cells	higher than that of the CTL epitope peptide of the Spike protein	–	–	5.12	–
KLNIKLLGI [pp1a-3816]	High (key: High: less than 100 μM; Medium: 100 to 200 μM; Low: more than 200 μM)	0.07%	–	–	–	–	4.17	–
KLSAGVEFL [pp1a-634]	High (key: High: less than 100 μM; Medium: 100 to 200 μM; Low: more than 200 μM)	0.08%	–	–	–	–	4.22	–
LLCVLAALV [pp1a-2755]	–	*0.18%	significantly induced IFN-γ-positive cells among CD8-positive cells	higher than that of the CTL epitope peptide of the Spike protein	high CTL response activities	70.5%	3.73	–
LLFITGNTL [pp1a-3745]	Medium (key: High: less than 100 μM; Medium: 100 to 200 μM; Low: more than 200 μM)	0.03%	–	–	–	–	3.81	–
MLLTFLTSL [pp1a-3560]	High (key: High: less than 100 μM; Medium: 100 to 200 μM; Low: more than 200 μM)	0.04%	–	–	–	–	4.33	–
MLSRALKKV [pp1a-1288]	High (key: High: less than 100 μM; Medium: 100 to 200 μM; Low: more than 200 μM)	0.05%	–	–	–	–	4.19	–
QLSLPVLQV [pp1a-15]	High (key: High: less than 100 μM; Medium: 100 to 200 μM; Low: more than 200 μM)	0.05%	–	–	–	–	4.12	–
SLQVCVQTV [pp1a-1139]	High (key: High: less than 100 μM; Medium: 100 to 200 μM; Low: more than 200 μM)	0.07%	–	–	–	–	5.31	–
TLGVLVPHV [pp1a-103]	High (key: High: less than 100 μM; Medium: 100 to 200 μM; Low: more than 200 μM)	0.07%	–	–	–	–	5.51	–
VLGSLAATV [pp1a-4219]	High (key: High: less than 100 μM; Medium: 100 to 200 μM; Low: more than 200 μM)	0.01%	–	–	–	–	4.27	–
VLLSVLQQL [pp1a-3848]	Medium (key: High: less than 100 μM; Medium: 100 to 200 μM; Low: more than 200 μM)	0.07%	–	–	–	–	3.99	–
YLSSVLLAL [pp1a-1652, YLSSVLLAL]	High (key: High: less than 100 μM; Medium: 100 to 200 μM; Low: more than 200 μM)	0.05%	–	–	–	–	5.17	–
